For experiment [1], the system named is Zymosan Stimulated Macrophaqes. Nature of the experiment: Test A: Inhibition of Arachidonic Acid Release from Zymosan Stimulated Macrophages. The settings on record: inhibition of arachidonic acid release, six concentrations (100, 50, 20, 10, 5 and 1 μM), 5 h with zymosan, read-out: Test A IC50. It is filed as cell-based, mouse (female MF1). On the procedure:
Inhibition of Arachidonic Acid Release from Zymosan Stimulated Macrophaqes
Female MF1 mice (weighing 20 to 25 g) were killed using a rising concentration of CO2. The mice were laid on their backs and the abdomens wiped with 70% alcohol. The skin was pulled back, exposing the peritoneal wall. Medium A (5 ml) (see below) was injected into the peritoneal cavity of each mouse followed by approximately 1 ml of air using a 20 ml syringe and a 21 G×40 mm needle in order to form a suspension of macrophage cells. The medium and cells were then removed using a 19 G×40 mm needle. The resulting suspension was returned to a sterile beaker kept on ice. The extracts from all the mice were pooled and this pooled cell suspension was counted using a Coulter counter and adjusted to a final cell count of 1-1.3×10^6 cells/ml prior to labelling with [^3 H]-arachidonic acid. Typically five mice provided sufficient cells for each multiwell plate.
Sufficient [^3 H]-arachidonic acid in ethanol to give a final concentration of 1.6 μCi/ml (equivalent to 40 μCi/plate) was blown to dryness under nitrogen. The arachidonic acid was then resuspended in 1 or 2 ml of the cell suspension which was then mixed with the remainder of the cell suspension in a centrifuge bottle. The labelled cell suspension was then plated out into sterile plastic 96 flat-bottomed well plates (250 μl per well) and incubated overnight at 37° C. in a moist atmosphere of 5% CO2, 95% air.
The following day, non-adherent cells were removed by washing 3 times with sterile phosphate buffered saline (PBS). The adherent peritoneal macrophages were then cultured for a further 24 hours in the presence or absence of drugs, in medium B (see below) at 37° in a 5% CO2 atmosphere in order to measure the effects of drugs on the spontaneous release of arachidonic acid in the absence of stimulus. After this incubation, supernatants were removed to give media 1 and stored in sealed multi-well plates at 4° C. prior to scintillation counting. Drugs which potentiated spontaneous release of arachidonic acid (125% of controls) were deemed to be toxic at the concentration at which this phenomenon occurred. The supernatants were replaced by fresh medium C containing fresh drug and a stimulus. Three drugs were tested at six concentrations (100, 50, 20, 10, 5 and 1 μM) in replicates of four on each plate. The other wells contained controls consisting of a positive control (e.g. dexamethasone), medium (B) only and medium C only.
Incubation was then continued for a further 5 hours, whereupon the supernatants were collected to give media 2 and the adherent cells washed with PBS. The cells were then lysed with 100 μl of 0.1% TRITON® X100 in a 0.1% solution of bovine serum albumin in 0.9% saline and mechanically disrupted to give cell lysates. These supernatants (media 2) and cell lysates (Cells) were also stored in sealed multi-well plates at 4° C. prior to scintillation counting. 200 μl aliquots of media, or 100 μl aliquots of cells were counted using 2 ml of OPTIPHASE "HIGH SAFE" (Trademark of LKB) as scintillant.
The percentage of arachidonic acid released was calculated using the mean values for each group of 4 wells in the following equation. [formula] cpm=courts per minute
The value for the arachidonic acid release in the absence of stimulus (spontaneous, cpm of media 2) from cells which had been exposed to neither stimulus nor drug was subtracted from all equivalent values (cpm media 2, stimulated with or without drug) to give the net stimulated release. The percentage inhibition of arachidonic acid release caused by a drug may then be calculated using the following equation. [formula]
Compounds of formula I were tested at six concentrations (100, 50, 20, 10, 5 and 1 μM) and IC50 values calculated. Compounds with IC50 values<100 μM are considered to be active. Advantageous compounds have an IC50 value <50 μM.
Medium A (for peritoneal lavage) […]

The subject of experiment [2] is Carrageenan-induced rat paw oedema. The experiment is described as follows: Test B: Carrageenan-induced rat paw oedema test. The experiment is classed as in vivo, rat (female). The conditions noted are these: inhibition of paw oedema, 1 h before carrageenan, 3 h after injection; for inhibition in vivo at 100 mg/kg: Rattus norvegicus, po, 3 h; for Test B % inhibition at 100 mg/kg: oral. The method, then: Carrageenan-induced rat paw oedema test
Female rats, weight range 125-150 g were fasted overnight. One of the hind legs of each animal was marked with a line at the connection between the cuboid/navicular and calcaneus/talus bones. Groups of six rats were orally dosed at 10 ml/kg, in random order, with a given dose of the test compound given as a solution or suspension in 10% (w/v) aqueous acacia solution.
One hour after dosing, 0.1 ml of 1% (w/v) sterile carrageenan λ in normal saline was injected deeply into the plantar surface of the marked hind foot of each rat. The volume of the foot (up to the marked line) was measured immediately after injection using duplicate water displacement readings. Three hours after injection the foot volume was measured again and the percentage increase in foot volume relative to the initial reading was calculated.
The increase in foot volume (i.e. the degree of oedema) in drug treated animals when compared with that in the drug untreated control gave the degree of inhibition of paw oedema by the drug.
Compounds were considered to be active in this test if they produced a 20% or greater inhibition of paw oedema in at least two out of three tests after oral dosing at 100 mg/kg. Statistical significance was assessed using the Student't test for single dose studies and Dunnett's test for multiple dose studies. More advantageous compounds were active in both Tests A and B,

Where a name gives a salt, the structure may show the parent alone. Read-outs that look alike come from different tables or passages of the source.

Turning to `CC(NCCCn1ccnc1)c1ccc(Cl)cc1` (single isomer, unassigned; (+)) [Example 56, (+) N-[1-(4-Chlorophenyl)ethyl]-3-(imidazol-1-yl)propylamine dihydrochloride], in experiment [1] (Mus musculus, Macrophage, 5 h), the IC50 came out at 16 µM. The compound also gave an inhibition in vivo at 100 mg/kg in experiment [2] of 57%.

Consider `CC(NCCCn1ccnc1)c1ccc(Cl)cc1` (single isomer, unassigned; (+)) [Example 93, (+)N-[1-(4-chlorophenyl)ethyl]-3-(imidazol-1-yl)-propylamine (+) ditartrate], for which the half-inhibitory concentration (IC50) in experiment [1] turned out to be 16 µM. Moreover, the “Test B % inhibition at 100 mg/kg” value in experiment [2] was 57%.

Regarding `CC(NCCCn1ccnc1)c1ccc(Cl)cc1.Cl.Cl` (single isomer, unassigned; (-)) [Example 57, (-)N-[1-(4-Chlorophenyl)ethyl]-3-(imidazol-1-yl)propylamine dihydrochloride], in experiment [1] (dihydrochloride), the IC50 is 20 µM. Further, the “Test B % inhibition at 100 mg/kg” value in experiment [2] (dihydrochloride) was 48%.

`CC(NCCCn1ccnc1)c1ccc(Cl)cc1` (single isomer, unassigned; (-)) [Example 92, (-) N-[1-(4-chlorophenyl)ethyl]-3-(imidazol-1-yl)propylamine (-)-ditartrate]: the IC50 in experiment [1] turned out to be 20 µM. The “Test B % inhibition at 100 mg/kg” value in experiment [2] turned out to be 48%.

As for `CC(C)(NCCCn1ccnc1)c1ccc(Cl)cc1.Cl.Cl` [68 (2), N-[1-(4-chlorophenyl)-1-methylethyl]-3-(imidazol-1-yl)propylamine dihydrochloride], the IC50 in experiment [1] (dihydrochloride) is 43 µM. The “Test B % inhibition at 100 mg/kg” value in experiment [2] stood at 70%.

For the compound `CC(NCCCn1ccnc1)c1ccc(Cl)cc1` (centres unmarked) [Example 1, N-[1-(4-chlorophenyl)ethyl]-3-(imidazol-1-yl)propylamine dihydrochloride], in experiment [1] (Mus musculus, Macrophage, 5 h), the IC50 amounted to 55 µM. The compound also registered an inhibition in vivo at 100 mg/kg in experiment [2] of 59%.

For `CC(NCCCn1ccnc1)c1ccc(Cl)cc1Cl` (centres unmarked) [Example 2, N-[1-(2,4-Dichlorophenyl)ethyl]-3-(imidazol-1-yl)propylamine], the half-maximal inhibitory concentration (IC50) in experiment [1] (Mus musculus, Macrophage, 5 h) worked out at 39 µM. Further, the inhibition in vivo at 100 mg/kg in experiment [2] is 37%.

Take `CC(NCCCn1ccnc1)c1ccc(OCc2ccccc2)cc1` (centres unmarked) [Example 5, N-[1-(4-Benzyloxyphenyl)ethyl]-3-(imidazol-1-yl)propylamine]: the half-inhibitory concentration (IC50) in experiment [1] (Mus musculus, Macrophage, 5 h) worked out at 12 µM. The inhibition in vivo at 100 mg/kg in experiment [2] worked out at 5%.

Regarding `CC(NCCCn1ccnc1)c1cccc(Cl)c1` (centres unmarked) [Example 7, N-[1-(3-Chlorophenyl)ethyl]-3-(imidazol-1-yl)propylamine], the IC50 in experiment [1] (Mus musculus, Macrophage, 5 h) was determined as 94 µM. Moreover, testing at 100 mg/kg in experiment [2] gave an inhibition in vivo of 48%.

As to `CC(NCCCn1ccnc1)c1ccccc1Cl` (centres unmarked) [Example 8, N-[1-(2-Chlorophenyl)ethyl]-3-(imidazol-1-yl)propylamine], in experiment [1] (Mus musculus, Macrophage, 5 h), the concentration for half-maximal inhibition (IC50) amounted to 92 µM. In experiment [2], this compound yielded an inhibition in vivo at 100 mg/kg of 55%.

As for `CC(NCCCn1ccnc1)c1ccc(Cl)c(C(F)(F)F)c1` (centres unmarked) [Example 9, N-[1-(4-Chloro-3-trifluoromethylphenyl)ethyl]-3-(imidazol-1-yl)propylamine], in experiment [1] (Mus musculus, Macrophage, 5 h), the IC50 stood at 22 µM. Further, the inhibition in vivo at 100 mg/kg in experiment [2] was 78%.

Take `CC(NCCCn1ccnc1)c1ccc(Cl)c(F)c1` (centres unmarked) [Example 10, N-[1-(4-Chloro-3-fluorophenyl)ethyl]-3-(imidazol-1-yl)propylamine dihydrochloride]: the half-maximal inhibitory concentration (IC50) in experiment [1] (Mus musculus, Macrophage, 5 h) was 40 µM. In experiment [2], this compound returned an inhibition in vivo at 100 mg/kg of 49%.

In the case of `CC(NCCCn1ccnc1)c1ccc(C(F)(F)F)cc1` (centres unmarked) [Example 11, 3-(Imidazol-1-yl)-N-[1-(4-trifluoromethylphenyl)ethyl]propylamine], the IC50 in experiment [1] (Mus musculus, Macrophage, 5 h) was found to be 45 µM. In addition, the inhibition in vivo at 100 mg/kg in experiment [2] was 34%.

For the compound `CC(NCCCn1ccnc1)c1ccc(Cl)c(Cl)c1Cl` (centres unmarked) [Example 13, N-[1-(2,3,4-Trichlorophenyl)ethyl]-3-(imidazol-1-yl)propylamine dihydrochloride], in experiment [1] (Mus musculus, Macrophage, 5 h), the half-inhibitory concentration (IC50) was 13 µM. In experiment [2], the inhibition in vivo at 100 mg/kg came out at 70%.

For `Cc1nccn1CCCNC(C)c1ccc(Cl)cc1` (centres unmarked) [Example 52, N-[1-(4-chlorophenyl)ethyl]-3-(2-methylimidazol-1-yl)propylamine], the “Test B % inhibition at 100 mg/kg” value in experiment [2] stood at 27%.

Usually IC50 stands for the midpoint of a concentration-inhibition curve. As usually defined, the inhibition in vivo is the drop in the measured response relative to a control, in per cent.

For the origin of these results see US5547972A, “Therapeutic agents useful for treating inflammatory diseases” (The Boots Company PLC, priority 1991, dated 1996).
